One compound from ChEMBL document CHEMBL2163239, “Inhibitors of human immunodeficiency virus type 1 (HIV-1) attachment 6. Preclinical and human pharmacokinetic profiling of BMS-663749, a phosphonooxymethyl prodrug of the HIV-1 attachment inhibitor 2-(4-benzoyl-1-piperazinyl)-1-(4,7-dimethoxy-1H-pyrrolo[2,3-c]pyridin-3-yl)-2-oxoethanone …” (J Med Chem, 2012) can be followed below.

Calls of active or inactive are those of the source. The calls are words filed in the database; no cut-off is given here.

The subject of data set [1] is Homo sapiens. The data set can be described thus: Toxicity in HIV 1-infected human assessed as adverse events at 1800 mg, po bid for 8 days measured upto 14 days. It is filed as organism-based. Particulars: in vivo.
In data set [2] the test system is Human immunodeficiency virus 1. The data set can be described thus: Antiviral activity against HIV 1-infected human assessed as reduction in viral load at 1800 mg, po bid for 8 days measured upto 14 days. It is filed as functional, organism-based.
Data set [3] in a line: Lipophilicity, log P of compound in octanol-PBS mixture at pH 6.5 by HPLC-UV analysis. It is filed as physicochemical.
Data set [4] is described as follows: Permeability across human Caco2 cells at pH 6.5. It is filed as ADME, cell-based. The conditions noted are these: Caco-2, pH 6.5, read-out: permeability. Background: Caco-2 cells form a polarised layer with tight junctions and transporters.
A short description of data set [5]: Cmax in high fat fed healthy human at 800 mg, po administered as capsule with high fat meal. It is filed as ADME, organism-based. Details: dose 800 mg, route oral. Particulars: in vivo.
A short description of data set [6]: Tmax in high fat fed healthy human at 800 mg, po administered as capsule with high fat meal. It is filed as ADME, organism-based. Particulars: in vivo.
Data set [7] can be described thus: AUC (infinity) in high fat fed healthy human at 800 mg, po administered as capsule with high fat meal. The class given is ADME, organism-based. Details: dose 800 mg, time infinity, route oral. Particulars: plasma.
Data set [8] is described as follows: Half life in high fat fed healthy human at 800 mg, po administered as capsule with high fat meal. It is filed as ADME, organism-based. The conditions noted are these: in vivo.
A short description of data set [9]: Plasma concentration in high fat fed healthy human at 800 mg, po administered as capsule with high fat meal measured after 12 hrs. The class given is ADME, organism-based.
Data set [10] is described as follows: Dissociation constant, pKa of compound. It is filed as physicochemical.

A word on the logD: it is the decadic logarithm of the distribution of all forms, ionised or not, between an organic phase and buffer at a given pH. As a reminder, the Cmax is the peak of the concentration-time curve. As a reminder, the Tmax is the time at which the peak concentration occurs. The AUC(0-inf) is total exposure, with the tail of the curve extrapolated. A word on the half-life: it is the time in which the quantity being followed falls by half. High values mean slow loss, low ones fast loss. As a reminder, the pKa is the negative logarithm of the acid dissociation constant. High values mean a weaker acid or stronger base, low ones a stronger acid or weaker base. For `COc1ncc(OC)c2c(C(=O)C(=O)N3CCN(C(=O)c4ccccc4)CC3)c[nH]c12`, the Activity entry in data set [1] is “Non-toxic”. The result in data set [2] was Active. Moreover, the logD in [3] stood at 1.5. Besides, the Papp in data set [4] is above 10 ×10⁻⁶ cm/s. For the same compound, in data set [5], the concentration peaked (Cmax) at 4100 ng/mL. In data set [6], the Tmax was 4 h. Also, the AUC(0-inf) in data set [7] was 21200 ng·h/mL. In [8], this compound had a half-life of 14 h. Further, the concentration at 12 h in data set [9] came to 175 ng/mL. Besides, in data set [10], the pKa turned out to be 2.6.
